Measured values: publication PMC7582725, “Suppression of hTAS2R16 Signaling by Umami Substances” (International Journal of Molecular Sciences, 2020)
Positions count from the first letter of the chain named.

Experiments:
[1] = biological target: hTAS2R16 P44T (human) (UniProt Q9NYV7)
[2] = biological target: hTAS2R16 (human bitter taste receptor, type 2 taste receptor 16), wild type (human) (UniProt Q9NYV7)
[3] = biological target: hTAS2R16 N96T (human) (UniProt Q9NYV7)
[4] = biological target: hTAS2R16 (human bitter taste receptor, type 2 taste receptor 16), wild type (human) (UniProt Q9NYV7); remark: listed apart in the source
[5] = biological target: T1, hTAS2R16 (Homo sapiens, UniProt Q9NYV7); assay: Cellular Ca2+ response, cell-based assay (Calcium-4, FlexStation III) in HEK293T cells co-expressing wild-type hTAS2R16 and G16αgust44; details: for Maximal Response of salicin: Table 1
T1 construct: expressed in transfected cells; host or cells: HEK293T
T1 sequence (Q9NYV7 1-291): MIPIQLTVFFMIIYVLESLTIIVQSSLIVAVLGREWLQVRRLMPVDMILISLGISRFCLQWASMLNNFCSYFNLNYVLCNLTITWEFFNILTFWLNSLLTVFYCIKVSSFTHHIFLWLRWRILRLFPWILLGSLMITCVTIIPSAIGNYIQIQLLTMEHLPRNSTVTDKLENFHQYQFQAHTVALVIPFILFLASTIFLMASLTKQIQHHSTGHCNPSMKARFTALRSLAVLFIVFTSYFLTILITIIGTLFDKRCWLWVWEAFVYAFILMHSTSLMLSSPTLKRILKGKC
Method: (§1) HEK293T cells were purchased from American Type Culture Collection (ATCC; Manassas, VA, USA) and cultured as described previously. The plasmids hTAS2R16 and G16αgust44 were constructed as described previously. G16αgust44 and hTAS2R16 were cloned into a cytomegalovirus promoter-based vector and expressed constitutively. Point mutants of N96T and P44T on hTAS2R16 clone and DNA sequencings were performed by Macrogen (Geumcheon-gu, Seoul, Korea). The hTAS2R16 or point mutant expression plasmid was co-transfected with G16αgust44 expression plasmid (4:1) into HEK293T cells using Lipofectamine 2000 (Invitrogen, Carlsbad, CA, USA).
(§2) The umami substances-induced changes in the cytosolic Ca^2+ concentration were measured using a FlexStation III microplate reader (Molecular Devices, Sunnyvale, CA, USA). HEK293T cells transfected with hTAS2R16 were seeded onto 96-well black-wall CellBind surface plates (Corning, NY, USA) for 18–24 h before use. […] The cells were incubated in the dark for 30 min at 37 °C, and then for 15 min at 27 °C in assay buffer consisting of Calcium-4 (FLIPR Calcium 4 Assay Kit, Molecular Devices) and probenecid or the umami compounds. Following treatment, the fluorescence intensity (excitation, 486 nm; emission, 525 nm) of the cell was measured. The relative changes in cell Ca^2+ were plotted as ΔF/F0 on the y-axis, where ΔF is the change in Calcium-4 fluorescence intensity at each time point and F0 is the fluorescence intensity before treatment. The relative response induced by 10 mM salicin was assigned a value of 100.

[6] = biological target: T1, hTAS2R16; details: in the presence of 3 mM salicin; read-out: reported IC50; cited from earlier work
[7] = biological target: T2, hTAS2R16 N96T (Homo sapiens, UniProt Q9NYV7, N96T); assay: Cellular Ca2+ response, cell-based assay in HEK293T cells expressing probenecid-insensitive mutant hTAS2R16 N96T; details: Table 3; pretreatment with sample 0.3 mM
T2 construct: expressed in transfected cells; host or cells: HEK293T
T2 sequence (Q9NYV7 1-291 N96T): T1 sequence (Q9NYV7 1-291) with N96T
Method: as §1, §2

[8] = biological target: T1, hTAS2R16; assay: Ca2+ response of hTAS2R16-expressing HEK293T cells to bitter ligands in absence and presence of umami substances (Figure 1; fura-2 F340/F380 imaging / cell-based assay); details: MSG 80 mM, IMP 20 mM, L-theanine 80 mM, Glu-Glu 6 mM, Gly-Gly 6 mM
Method: We first verified if non-peptide umami substances affect the downstream signaling mechanism, such as changes in intracellular Ca^2+ of the human bitter taste receptor. […] The increase in fluorescence intensity ratio (F340/F380) with 10 mM salicin was expressed as 100. […] In addition to salicin, hTAS2R16 also recognizes bitter sugars such as phenyl β-D-glucopyranoside and arbutin, a glycosylated hydroquinone extracted from the bearberry plant in the genus Arctostaphylos.
(A) Chemical structures of tested compounds. Summarized data (B) and representative traces (C) showing responses of HEK293T cells co-expressing hTAS2R16 and Gα16gust44 to 10 mM salicin in the absence and presence of umami substances in a cell-based assay. (D,E) Representative ratiometric images of fura-2-loaded hTAS2R16-expressing cells in response to the other ligands, 5 mM arbutin (D) or phenyl β-D-glucopyranoside (E), in the presence of umami substances. The data were normalized as percentages to the maximal signal obtained with the ligands. The color scale indicates the F340/F380 ratio. Scale bar: 11.04 μm. Data are presented as means ± standard error of the mean (SEM) of at least three separate experiments. * p < 0.05, ** p < 0.01, and *** p < 0.001 vs. the 0 mM sample group by Student’s t-test.
as §2, with “Following treatment, the fluorescence intensity (excitation, 486 nm; emission, 525 nm) of the cell was measured.” left out
Cells were seeded onto 96-well black-wall imaging plates (BD Falcon Labware) for 18–26 h prior to their use in an experiment. […] The cells were rinsed with the buffer, incubated in probenecid or sample for 30 min, and then treated with solution containing the ligand. The Fura-2AM-induced fluorescence intensity (excitation at 340 and 380 nm) was measured at emission wavelength of 510 nm using a computer-controlled filter changer (Lambda DG4; Sutter, San Rafael, CA, USA), an Andor Luca CCD camera (Andor Technology, Belfast, UK), and an inverted fluorescence microscope (IX-71; Olympus, Tokyo, Japan). Images were obtained at 3-s intervals and analyzed using MetaFluor software (Molecular Devices, Sunnyvale, CA, USA).

[9] = biological target: T3, hTAS2R16 P44T (Homo sapiens, UniProt Q9NYV7, P44T); assay: Cellular Ca2+ response, cell-based assay in HEK293T cells expressing probenecid-insensitive mutant hTAS2R16 P44T
T3 construct: expressed in transfected cells; host or cells: HEK293T
T3 sequence (Q9NYV7 1-291 P44T): T1 sequence (Q9NYV7 1-291) with P44T
Method: as §1, §2

[10] = Table 3, pretreatment with sample 0.3 mM

Compound | maximal Ca2+ response (ΔF/F0) to salicin in cells expressing hTAS2R16 P44T after pretreatment with 6 mM Glu-Glu (0.62 without Glu-Glu) [1] | maximal Ca2+ response (ΔF/F0) to salicin in cells expressing wild-type hTAS2R16 after pretreatment with 6 mM Glu-Glu (0.54 without Glu-Glu) [2] | maximal Ca2+ response (ΔF/F0) to salicin in cells expressing hTAS2R16 N96T after pretreatment with 6 mM Glu-Glu (0.61 without Glu-Glu); the text says the inhibition by Glu-Glu is lost in this mutant [3] | maximal Ca2+ response (ΔF/F0) to salicin (0-30 mM) in cells expressing hTAS2R16 with Glu-Glu at 0, 1, 3, 6 and 10 mM (0.54 at 0 mM); value at 10 mM Glu-Glu [4] | Maximal Response of salicin ([5]; pretreatment with sample 0.1 mM) | Maximal Response of salicin ([5]; pretreatment with sample 0.3 mM) | Maximal Response of salicin ([5]; pretreatment with sample 1 mM) | Maximal Response of salicin, WT [5, 10] | mechanism of antagonism at hTAS2R16 ([5]; from salicin concentration–response curves at graded antagonist concentrations) | attenuation of salicin response by pretreatment, WT receptor ([5]; salicin 0.003–30 mM, probenecid 0.3 mM, L-theanine 80 mM) | IC50 [6] [µM] | Maximal Response of salicin, N96T [7] | inhibition of Ca2+ response to arbutin ([8]; 5 mM arbutin) | inhibition of Ca2+ response to phenyl β-D-glucopyranoside ([8]; phenyl β-D-glucopyranoside) | Maximal Response of salicin, P44T [9, 10] | attenuation of salicin response by pretreatment, P44T mutant ([9]; salicin 0.003–30 mM, probenecid 0.3 mM, MSG 80 mM, L-theanine 80 mM)
Glu-Glu (peptide) | 0.42 ΔF/F0 | 0.4 ΔF/F0 | 0.65 ΔF/F0 | 0.33 ΔF/F0 | – | – | – | – | – | – | – | – | – | – | – | –
CCCN(CCC)S(=O)(=O)c1ccc(C(=O)O)cc1 [Probenecid, ρ-(dipropylsulfamoyl)benzoic acid] | – | – | – | – | 0.47 ΔF/F0 | 0.23 ΔF/F0 | 0.07 ΔF/F0 | 0.23 ΔF/F0 | full insurmountable antagonism | significant attenuation | 290 | 0.68 ΔF/F0 | inhibited | inhibited | 0.58 ΔF/F0 | not in cells expressing the two mutants
